From patent US8153773B2, “Synthesis and use of anti-reverse phosphorothioate analogs of the messenger RNA cap” (Board of Supervisors of Louisiana State University and …, priority 2007, dated 2012)

Columns and labels:
HC11 cells = assay: Translational efficiency of capped luciferase mRNA in HC11 cells; format: cell-based, mouse; details: Luc-A60 mRNA capped with the analog in HC11 cells, relative to m^7Gp3G-capped mRNA
Description: Two methods, electroporation and nucleoporation, were used to deliver RNA into cells. In case of electroporation, 5 μg of RNA were introduced into 10^7 HC11 cells in a total volume 400 μl of serum-reduced RPMI 1640 medium in a Gene pulser cuvette (4 mm gap) with a Bio-Rad Genepulser™ set at 0.22 kV and 960 μF. Following discharge, the cells were washed twice with PBS, centrifuged for 2 min 300×g at room temperature, resuspended in prewarmed complete medium, and placed at 37° C. Nucleoporation was performed with an Amaxa Nucleofector II (Amaxa Biosystems) in accordance with manufacture's recommendations. One microgram of RNA was introduced into 10^6 HC11 cells with Nucleofector Solution V and the set of recommended regimens (program T-024).
For measurement of translational efficiency, cells were divided into several Eppendorf tubes, placed in a water bath at 37° C., and shaken. For measurement of mRNA stability, cells were distributed into 35-mm cell culture dishes and placed at 37° C. in a 5% CO2 humidified atmosphere. Cells were harvested at various times and washed twice with PBS.
For cytoplasmic RNA extraction, 2×10^5 cells were lysed in 175 μl of lysis buffer (50 mM Tris-HCl, pH 8.0, 140 mM NaCl, 1.5 mM MgCl2, 0.5% (v/v) Igepal (Sigma), and 1 mM dithiothreitol). RNAs were further purified using the RNeasy mini kit. For protein extraction, 2×10^5 cells were lysed in 200 μl of Luciferase Cell Culture Lysis Reagent (Promega). Luciferase activity of cell extracts was measured according to the manufacturer's protocol (Promega).
We also determined the translational efficiency in cultured cells for luciferase mRNA capped with S-ARCAs. This involved two measurements conducted at various times following nucleoporation—luciferase activity measured by luminometry in cleared cell lysates, and Luc-A60 levels measured by real-time PCR. Luciferase activity was normalized by the amount of luciferase mRNA that had been delivered into cells. To determine the amount of RNA present in the cells at a time immediately after nucleoporation, i.e., before any decay had occurred, cells were harvested at various times between 2 to 8 h post-nucleoporation, and cytoplasmic RNA was extracted. The amount of luciferase mRNA was measured by real time PCR using primers that amplify sequences near the 5′-end. Luciferase mRNA remaining at each time point was plotted as log10 ([RNA]) versus time to determine t1/2. The curve was extrapolated to 0 h, and the amount of RNA delivered into the cells was calculated. We defined conditions under which the accumulation of luciferase was linear with time, after an initial lag period of ˜30 min for recruitment of mRNA to ribosomes, completing the first polypeptide chain, and release of luciferase into the cytosol.

DcpS [1] = target: T1, DcpS (Homo sapiens, UniProt Q96C86); assay: Enzymatic hydrolysis by human DcpS; format: biochemical; parameters: key: the analogs assigned as resistant remained completely undigested under the applied conditions; the analogs assigned as hydrolyzed were hydrolyzed by DcpS with efficiency comparable to the respective unmodified parent compound; details: conditions giving complete degradation of unmodified parent within 40-90 min, RP HPLC
T1 sequence (Q96C86 1-337): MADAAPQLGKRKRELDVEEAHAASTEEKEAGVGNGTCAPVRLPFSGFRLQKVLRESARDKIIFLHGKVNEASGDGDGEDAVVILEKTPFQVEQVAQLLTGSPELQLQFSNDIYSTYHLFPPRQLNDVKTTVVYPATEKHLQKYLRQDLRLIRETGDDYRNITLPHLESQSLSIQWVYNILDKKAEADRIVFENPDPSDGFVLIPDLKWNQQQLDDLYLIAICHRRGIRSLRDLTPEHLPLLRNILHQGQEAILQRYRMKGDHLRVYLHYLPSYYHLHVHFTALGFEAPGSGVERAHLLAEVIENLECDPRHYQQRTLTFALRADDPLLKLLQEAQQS
Description: (§1) Human and nematode DcpS were expressed in Escherichia coli according to the procedures described previously (L. S. Cohen et al., “Nematode m7 GpppG and m3(2,2,7)GpppG decapping: activities in Ascaris embryos and characterization of C. elegans scavenger DcpS,” RNA, vol. 10, pp. 1609-1624 (2004)). Both proteins were stored at −80° C. in 20 mM Tris buffer, pH 7.5, containing 50 mM KCl, 0.2 mM EDTA, 1 mM DTT, 0.5 mM PMSF, and 20% glycerol. An appropriate cap analog at 1 mM concentration was treated with 5.0 or 7.0 μl of DcpS (from human or C. elegans, respectively) in 500 μl of 50 mM TRIS buffer, pH=7.9, containing 20 mM of MgCl2 and 60 mM of (NH4)2SO4 at 37° C. for 60-90 min. Every 15-20 min a 100 μl sample was collected from the reaction mixture and deactivated by incubation in 90° C. for 3 min. Collected samples were analyzed without further treatment by analytical RP HPLC using a linear gradient of methanol in 0.1 M KH2PO4, pH=6.0, from 0-50% within 15 min and UV-detection at 260 nm.
(§2) The new series of S-analogs were subjected to in vitro enzymatic hydrolysis catalyzed by DcpS from both human and C. elegans sources. In all experiments, the corresponding unmodified cap analog was used as a positive control, i.e., m^7GpppG for non-ARCA S-analogs and m2^7,2′-OGpppG for S-ARCAs. The amount of DcpS enzyme was optimized to provide complete degradation of the control substrate within 40-90 min. The samples collected from reaction mixtures at various time intervals were analyzed by RP HPLC (as described in Materials and Methods).
(§3) In Table 4, cap analogs at 4 μM concentration were subjected to enzymatic digestion by DcpS in conditions leading to complete degradation of the unmodified parent compound (i.e. m^7GpppG for non-ARCA S-analogs and m2^7,2′-OGpppG for ARCAs) within 40-90 min. Samples collected from reaction mixtures at various time intervals were analysed by RP HPLC with UV detection at 260 nm as described in Materials and Methods. […] The result was unchanged even if the reaction time was extended to 24 h, various amounts of enzyme were used, and composition of the reaction buffer was modified.

DcpS [2] = target: T2, DcpS (Caenorhabditis elegans, UniProt G5EFS4); assay: Enzymatic hydrolysis by C. elegans DcpS; format: biochemical; parameters: key: the analogs assigned as resistant remained completely undigested under the applied conditions; the analogs assigned as hydrolyzed were hydrolyzed by DcpS with efficiency comparable to the respective unmodified parent compound; details: conditions giving complete degradation of unmodified parent within 40-90 min, RP HPLC
T2 sequence (G5EFS4 1-311): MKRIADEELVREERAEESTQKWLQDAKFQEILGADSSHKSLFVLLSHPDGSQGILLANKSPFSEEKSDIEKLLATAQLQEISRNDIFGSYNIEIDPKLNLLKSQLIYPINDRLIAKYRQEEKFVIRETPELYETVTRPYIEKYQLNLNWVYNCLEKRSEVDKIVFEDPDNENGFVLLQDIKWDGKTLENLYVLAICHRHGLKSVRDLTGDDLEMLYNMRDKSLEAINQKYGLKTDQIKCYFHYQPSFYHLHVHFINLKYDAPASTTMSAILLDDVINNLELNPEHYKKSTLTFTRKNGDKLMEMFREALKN
Description: as §1, §2, §3

Molecule | Relative translational efficiency (HC11 cells) | Resistance to enzymatic hydrolysis by DcpS (human) (DcpS [1]) | Resistance to enzymatic hydrolysis by DcpS (from C. elegans) (DcpS [2]) | Relative translational efficiency (HC11 cells; listed as m2^7,2′-OGppSpG (D1)) | Relative translational efficiency (HC11 cells; listed as m2^7,2′-OGppspG (D1)) | Relative translational efficiency (HC11 cells; listed as m2^7,2′-OGppSpG (D2)) | Relative translational efficiency (HC11 cells; listed as m2^7,2′-OGppspG (D2))
CO[C@@H]1[C@H](O)[C@@H](COP(=O)(O)OP(=O)([O-])OP(=O)(O)OC[C@H]2O[C@@H](n3cnc4c(=O)[nH]c(N)nc43)[C@H](O)[C@@H]2O)O[C@H]1n1c[n+](C)c2c(O)nc(N)nc21 [m2^7,2′-OGpppG, reference compound] | 2.1 ± 0.2 | hydrolyzed | hydrolyzed |  |  |  | 
m2^7,2′-OGpppsG (D1) [Compound 4a] | 2.5 ± 0.8 | hydrolyzed | hydrolyzed |  |  |  | 
m2^7,2′-OGpppsG (D2) [Compound 4b] | 1.8 ± 0.4 | hydrolyzed | hydrolyzed |  |  |  | 
m2^7,2′-OGppspG (D1) [Compound 5a] |  | hydrolyzed | hydrolyzed | 2.8 ± 0.3 | 2.8 |  | 
m2^7,2′-OGppspG (D2) [Compound 5b] |  | hydrolyzed | hydrolyzed |  |  | 5.1 ± 0.5 | 5.1
m2^7,2′-OGpsppG (D1) [Compound 6a] | 2.0 ± 0.1 | resistant | resistant |  |  |  | 
m2^7,2′-OGpsppG (D2) [Compound 6b] | 1.9 ± 0.1 | resistant | resistant |  |  |  | 
